{"source": "paper PMC5502055", "about": "“Phase II study of lanreotide autogel in Japanese patients with unresectable or metastatic well-differentiated neuroendocrine tumors” (Investigational New Drugs, 2017)", "key": {"[1]": {"test_system": "non-functional enteropancreatic NET", "conditions": "CLARINET study, cited from earlier work", "excerpt": "Tumors occurring in nerves or endocrine cells anywhere in the body can be classified as neuroendocrine neoplasm (NEN). NEN is classified into poorly-differentiated neuroendocrine carcinoma and well-differentiated neuroendocrine tumor (NET). NET is a rare disease and tends to proliferate slowly. According to an epidemiological survey conducted in Japan in 2010, the incidence of new pancreatic and gastrointestinal NET was 4.78 per 100,000 people (estimated number of patients treated: 11,467). The incidences of NET other than pancreatic and gastrointestinal NET remain unknown in Japan, wher ... || Furthermore, in the CLARINET study, a median PFS was not reached at 96 weeks (24 months), in contrast to the median PFS of 36.3 weeks (based on the RECIST ver. 1.1) in the present study. This difference is attributed to differences in baseline disease characteristics of the patient and tumor characteristics. The percentages of patients with PD at baseline and prior treatment for NET were 39.3% (11/28 patients) and 78.6% (22/28 patients), respectively, in the present, and only 4.0% (4/101 patients) and 15.8% (16/101 patients), respectively, in the CLARINET study. The current Japanese stud ..."}, "[2]": {"test_system": "Japanese patients with grade (G) 1/G2 NET", "experiment": "Post hoc analysis of tumor growth rate (TGR)", "format": "in vivo, human", "design": "key to TGR (0-Last): % change in tumor volume per month", "conditions": "for TGR (0-Last): mean ± SD", "method": "The descriptive statistics of tumor growth rate (TGR) were calculated in a post hoc analysis of the FAS. The TGR estimates the change of the tumor volume during 1 month. This value incorporates the intervals between imaging tests, thus allowing a quantitative and dynamic evaluation of the tumor response. Scatter plots were prepared, and a subgroup analysis was conducted. To calculate TGR, results evaluated by the investigator were used before baseline, and results determined via central evaluation were used after baseline. There were not enough events for multivariate analysis, therefore univariate analysis based on the Cox proportional hazard model was implemented to assess prognostic factors.\nThe TGR per unit time was calculated in the post-hoc analysis. From past to 0 (baseline), the results of the investigator’s evaluation were used for tumor lesions, after baseline, the results of a central evaluation were used for the tumor lesions. The TGR (mean ± SD) before the first injection was 25.3 ± 35.7%, and the TGR from baseline to the last value was 5.4 ± 10.7% (Fig. 4)."}}}
{"smiles": "CC(C)[C@@H]1NC(=O)[C@H](CCCCN)NC(=O)[C@@H](Cc2c[nH]c3ccccc23)NC(=O)[C@H](Cc2ccc(O)cc2)NC(=O)[C@@H](NC(=O)[C@H](N)Cc2ccc3ccccc3c2)CSSC[C@@H](C(=O)N[C@H](C(N)=O)[C@@H](C)O)NC1=O", "note": "[lanreotide]", "values": [{"measurement": "median PFS", "setting": "[1]; up to 96 weeks (24 months), placebo 18.0 months", "value": "not reached"}, {"measurement": "hazard ratio for PFS vs placebo", "setting": "[1]; 95% CI 0.30-0.73, P < 0.001", "value": 0.47}, {"measurement": "TGR from baseline to the last value (mean ± SD)", "setting": "[2]; FAS n=28, post hoc, TGR before the first injection 25.3 ± 35.7%", "value": "5.4 ± 10.7", "unit": "%"}, {"measurement": "TGR (0-Last)", "setting": "[2]; FAS subgroup Age (years) >65, N=12", "value": "5.44 ± 10.34"}, {"measurement": "TGR (0-Last)", "setting": "[2]; FAS subgroup Age (years) ≤65, N=16", "value": "5.41 ± 11.34"}, {"measurement": "TGR (0-Last)", "setting": "[2]; FAS subgroup Baseline TGR (%/month) <10, N=13", "value": "3.41 ± 9.43"}, {"measurement": "TGR (0-Last)", "setting": "[2]; FAS subgroup Baseline TGR (%/month) ≥10, N=15", "value": "7.17 ± 11.76"}, {"measurement": "TGR (0-Last)", "setting": "[2]; FAS subgroup Grade of tumor Grade 1, N=9", "value": "1.65 ± 5.95"}, {"measurement": "TGR (0-Last)", "setting": "[2]; FAS subgroup Grade of tumor Grade 2, N=19", "value": "7.21 ± 12.09"}, {"measurement": "TGR (0-Last)", "setting": "[2]; FAS subgroup Hepatic tumor load (%) >10 and ≤25, N=6", "value": "8.10 ± 15.47"}, {"measurement": "TGR (0-Last)", "setting": "[2]; FAS subgroup Hepatic tumor load (%) >25 and ≤50, N=3", "value": "9.49 ± 9.98"}, {"measurement": "TGR (0-Last)", "setting": "[2]; FAS subgroup Hepatic tumor load (%) ≥0 and ≤10, N=18", "value": "4.09 ± 9.60"}, {"measurement": "TGR (0-Last)", "setting": "[2]; FAS subgroup Ki67 index (%) >2 and ≤5, N=8", "value": "5.55 ± 8.50"}, {"measurement": "TGR (0-Last)", "setting": "[2]; FAS subgroup Ki67 index (%) >5 and <10, N=9", "value": "4.63 ± 11.81"}, {"measurement": "TGR (0-Last)", "setting": "[2]; FAS subgroup Ki67 index (%) ≤ 2, N=8", "value": "1.82 ± 6.34"}, {"measurement": "TGR (0-Last)", "setting": "[2]; FAS subgroup Sex Female, N=9", "value": "2.71 ± 10.00"}, {"measurement": "TGR (0-Last)", "setting": "[2]; FAS subgroup Sex Male, N=19", "value": "6.71 ± 11.07"}, {"measurement": "TGR (0-Last)", "setting": "[2]; FAS subgroup primary tumor site Hindgut, N=8", "value": "16.35 ± 11.02"}, {"measurement": "TGR (0-Last)", "setting": "[2]; FAS subgroup primary tumor site Other/ Unknown, N=5", "value": "4.23 ± 6.12"}, {"measurement": "TGR (0-Last)", "setting": "[2]; FAS subgroup primary tumor site Pancreas, N=12", "value": "0.43 ± 7.83"}, {"measurement": "TGR (0-Last)", "setting": "[2]; FAS subgroup prior treatment for NET Absent, N=6", "value": "0.69 ± 5.09"}, {"measurement": "TGR (0-Last)", "setting": "[2]; FAS subgroup prior treatment for NET Present, N=22", "value": "6.72 ± 11.55"}, {"measurement": "TGR (0-Last)", "setting": "[2]; FAS subgroup progressive disease at baseline Absent, N=17", "value": "1.99 ± 6.50"}, {"measurement": "TGR (0-Last)", "setting": "[2]; FAS subgroup progressive disease at baseline Present, N=11", "value": "10.74 ± 13.84"}, {"measurement": "patients with decrease in TGR at the last value", "setting": "[2]; population with PD at baseline, 10 of 11 patients", "value": 90.9, "unit": "%"}]}
